In ChEMBL document CHEMBL2380233, “Addition of artificial salt bridge by Ile646Lys mutation in gp41 coiled-coil domain regulates 6-helical bundle formation” (Bioorg Med Chem Lett, 2013):

Legend:
[1] = system: Human immunodeficiency virus 1; assay: Antiviral activity against HIV1 JRFL infected in HEK293T cells by luciferase reporter gene assay; format: functional, organism-based; settings: Human immunodeficiency virus 1, JRFL, HEK-293T
[2] = system: Human immunodeficiency virus 1; assay: Antiviral activity against HIV1 SF162 infected in HEK293T cells by luciferase reporter gene assay; format: functional, cell-based; settings: Human immunodeficiency virus 1, SF162 ISOLATE, HEK-293T
[3] = system: Human immunodeficiency virus 1; assay: Antiviral activity against HIV1 HXB2 infected in HEK293T cells by luciferase reporter gene assay; format: functional, organism-based; settings: Human immunodeficiency virus 1, HXB2, HEK-293T
[4] = system: Human immunodeficiency virus 1; assay: Antiviral activity against HIV1 CNE3 infected in HEK293T cells by luciferase reporter gene assay; format: functional, organism-based; settings: Human immunodeficiency virus 1, CNE3, HEK-293T

IC50 [1]	IC50 [2]	IC50 [3]	IC50 [4]	SMILES
920 nM	520 nM	94 nM	550 nM	CC[C@H](C)[C@H](NC(=O)[C@H](CCC(=O)O)NC(=O)[C@H](CCCNC(=N)N)NC(=O)[C@H](CC(=O)O)NC(=O)[C@H](Cc1c[nH]c2ccccc12)NC(=O)[C@H](CCC(=O)O)NC(=O)[C@H](CCSC)NC(=O)[C@H](Cc1c[nH]c2ccccc12)NC(C)=O)C(=O)N[C@@H](CC(N)=O)C(=O)N[C@@H](CC(N)=O)C(=O)N[C@@H](Cc1ccc(O)cc1)C(=O)N[C@H](C(=O)N[C@@H](CO)C(=O)N[C@@H](CC(C)C)C(=O)N[C@H](C(=O)N[C@@H](Cc1cnc[nH]1)C(=O)N[C@@H](CO)C(=O)N[C@@H](CC(C)C)C(=O)N[C@@H](CCCCN)C(=O)N[C@@H](CCC(=O)O)C(=O)N[C@@H](CCC(=O)O)C(=O)N[C@@H](CO)C(=O)N[C@@H](CCC(N)=O)C(=O)N[C@@H](CC(N)=O)C(=O)N[C@@H](CCC(N)=O)C(=O)N[C@@H](CCC(N)=O)C(=O)N[C@@H](CCC(=O)O)C(=O)N[C@@H](CCCCN)C(=O)N[C@@H](CC(N)=O)C(=O)N[C@@H](CCC(=O)O)C(=O)N[C@@H](CCC(N)=O)C(=O)N[C@@H](CCC(=O)O)C(=O)N[C@@H](CC(C)C)C(=O)N[C@@H](CC(C)C)C(N)=O)[C@@H](C)CC)[C@@H](C)O
1190 nM	1430 nM	1310 nM	470 nM	CC[C@H](C)[C@H](NC(=O)[C@H](CCC(=O)O)NC(=O)[C@H](CCCNC(=N)N)NC(=O)[C@H](CC(=O)O)NC(=O)[C@H](Cc1c[nH]c2ccccc12)NC(=O)[C@H](CCC(=O)O)NC(=O)[C@H](CCSC)NC(=O)[C@H](Cc1c[nH]c2ccccc12)NC(C)=O)C(=O)N[C@@H](CC(N)=O)C(=O)N[C@@H](CC(N)=O)C(=O)N[C@@H](Cc1ccc(O)cc1)C(=O)N[C@H](C(=O)N[C@@H](CO)C(=O)N[C@@H](CC(C)C)C(=O)N[C@H](C(=O)N[C@@H](Cc1cnc[nH]1)C(=O)N[C@@H](CO)C(=O)N[C@@H](CC(C)C)C(=O)N[C@@H](CCC(=O)O)C(=O)N[C@@H](CCC(=O)O)C(=O)N[C@@H](CCC(=O)O)C(=O)N[C@@H](CO)C(=O)N[C@@H](CCC(N)=O)C(=O)N[C@@H](CC(N)=O)C(=O)N[C@@H](CCC(N)=O)C(=O)N[C@@H](CCC(N)=O)C(=O)N[C@@H](CCC(=O)O)C(=O)N[C@@H](CCCCN)C(=O)N[C@@H](CC(N)=O)C(=O)N[C@@H](CCC(=O)O)C(=O)N[C@@H](CCC(N)=O)C(=O)N[C@@H](CCC(=O)O)C(=O)N[C@@H](CC(C)C)C(=O)N[C@@H](CC(C)C)C(N)=O)[C@@H](C)CC)[C@@H](C)O
